Assay results as given in patent EP4173633B1, “PRODUCTS COMPRISING ESSENTIAL OIL OR EXTRACT WITH PHENOLIC COMPOUNDS OBTAINED FROM THE RESIDUAL WATER OF THE HYDRODISTILLATION OF EUCALYPTUS GLOBULUS LEAVES AND THEIR USES” (RAIZ - Instituto De Investigação Da Floresta E Papel, priority 2021, dated 2023).

System: NIH/3T3 fibroblasts
Experiment: β-gal activity associated with senescence, etoposide-induced
Assay type: cell-based, mouse
Conditions: 12.5 µM etoposide 24 h alone; control 8.86%
Experimental: HaCaT and NIH/3T3 cells were seeded in 12-well plates at a density of 1.5 x 10^5 or 2.5 x 10^4 cells/well, respectively, and adhered for 24 h. Cell senescence was then induced in the HaCaT and NIH/3T3 lines by exposure to 100 µM etoposide (Sigma-Aldrich, St. Louis, MO, USA) for 72 h or 12.5 µM etoposide for 24 h, respectively. After the incubation period, senescent HaCaT and NIH/3T3 cells were treated in the absence or presence of EO (0.16 mg/mL) or HRW (0.8 µg/mL) for 24 h. In the case of NIH/3T3 cells, they were further treated for 24 h with bacterial cellulose membrane extract impregnated with glycerol and 2 µg/cm2 of extract with phenolic compounds obtained from wastewater from hydrodistillation (BC-G-HRW2), prepared from sterile samples (10 cm 2) incubated in 10 ml of DMEM exposure medium. As a control, cells not treated with etoposide were incubated with DMEM exposure medium or similarly prepared BC-G and BC-G-HRW2 membrane extracts. […] Finally, senescent cells were quantified using an inverted microscope (Carl Zeiss, Oberkochen, Germany) at 20x magnification, determining the % of β-gal-positive cells in randomly selected fields in four different images obtained in at least 3 independent experiments performed in duplicate.

COc1cc([C@@H]2c3cc4c(cc3[C@@H](O[C@@H]3O[C@@H]5CO[C@@H](C)O[C@H]5[C@H](O)[C@H]3O)[C@H]3COC(=O)[C@H]23)OCO4)cc(OC)c1O [etoposide]
number of β-gal-positive associated senescent NIH/3T3 cells: 44.11%
